What was measured:
BL21 GOLD cells = assay: Aβ1-42 dimerization assay (colony growth); type: cell-based, E. coli; conditions: for colonies grown on test plates: M9 minimal media with Tmp and IPTG; for colonies grown on negative control plates: M9 minimal media with Tmp; for No. of colonies (CFU): 48-hour incubation
Source text: Schematic illustrating general principles of using the TBS assay to screen for inhibitors of the initial dimerization event of Aβ1-42. In bacterial cells, endogenous DHFR can be inhibited using the antibiotic trimethoprim, making cells reliant on the modified, exogenous DHFR (top panel). In this setting, if AP-1 binds to the TRE sites in the DHFR, transcription is blocked and no functional DHFR enzyme is produced, resulting in cell death (middle panel). By attaching this basic cJun region to Aβ1-42, a functional DNA binder will be created if two Aβ1-42 peptides dimerize. In the absence of an inhibitor, basic-Aβ1-42 dimerization would lead to blocking of the DHFR gene transcription, resulting in cell death (lower left hand panel). Only cells treated with a successful Aβ1-42 dimerization inhibitor would produce DHFR and so survive, allowing selection for potential therapeutics for treating Alzheimer's Disease (lower right hand panel).
BL21 GOLD cells stably expressing a pREP4 plasmid containing lac inhibitor […] gene were used for the dimerization assay, so that the lac operon could be controlled. Cells were transformed with p300d plasmid containing DHFR with 15 TRE sites under control of the lac operon (described in Example 1), and either a p230d containing Aβ1-42 or constructed basic-Aβ1-42.
BL21 from the 100 μL plates were scraped into LB and selecting antibiotics and grown to an OD600 of 0.5. 100 μL of culture was plated onto positive control, negative control and test plates, as described in Table 3 below.
A covering of cells was seen on both positive control plates, showing that BL21 cells were not affected by scraping and re-plating. Tmp was used to inhibit the endogenous, E. coli DHFR enzyme. […] Two basic-Aβ1-42 expressing colonies and one Aβ1-42 colony grew on these negative control plates. Test plates contained IPTG to bind to lac repressor protein and allow expression of the modified DHFR in the bacteria. There were 63 Aβ1-42 expressing BL21 colonies formed on these plates, which confirmed that the modified DHFR gene allows cells to grow on minimal media. Importantly, only 2 basic-Aβ1-42 expressing colonies grew on test plates, which was consistent with levels of background growth seen on negative control plates.

[1] = system: TRE's introduced within the mDHFR gene; assay: Transcription-Block Survival (TBS) assay with basic-cJun; type: cell-based, E. coli; conditions: M9 minimal media with Tmp and IPTG, protein overexpressed on second plasmid with mDHFR containing 15 TREs
Source text: Fifteen TREs have been introduced into the mDHFR gene. A) The changes to the DNA sequence result in a fully active protein that expresses, folds, and confers survival in M9 minimal media using trimethoprim (TMP) to inhibit bacterial DHFR. […] Expressing mDHFR with IPTG (right hand side plates), generates colonies in A) but not B).
It was next necessary to establish that introduction of an AP-1 component (in this case basic-cJun) would result in binding to the 15 TRE's introduced within the mDHFR gene and therefore failure of the gene to be transcribed.
Three plasmids were used for this assay. These are i) p300-mDHFR (Cm; SEQ ID NO: 42) to express the […] sequence containing mDHFR, which is under control of the lac-operon; ii) p230d-basic-cJun (Amp; SEQ ID NO: 43) which is also under control of the lac-operon; iii) pREP4 (Kan; SEQ ID NO: 44) to express the lac repressor.
Cells were grown under non-selective conditions (i.e. LB/LB agar) containing Cm/Amp/Kan up until the time of the Assay. During TBS Selection Cells are grown in M9 minimal media (Agar or Broth) in the presence of Cm/Amp/Kan, as well as Tmp (to inhibit the bacterial copies of DHFR) and IPTG (to induce expression of mDHFR and bZIP proteins). […]

[2] = target: the molecule itself; assay: TBS cell survival assay in E. coli, colony formation on M9 agar
Description: Cells were grown under non-selective conditions (i.e. LB/LB agar) containing Cm/Amp/Kan up until the time of the Assay. During TBS Selection Cells are grown in M9 minimal media (Agar or Broth) in the presence of Cm/Amp/Kan, as well as Tmp (to inhibit the bacterial copies of DHFR) and IPTG (to induce expression of mDHFR and bZIP proteins). During Assay selection, media-lacking ITPG is used to serve as a negative control to ensure that cell survival is exclusively driven by the loss on interaction between bZIP target protein and the consensus sequences located within the mDHFR gene.

[3] = Negative control plate: M9 minimal agar, 3.4 μM Tmp, no IPTG
[4] = Positive control plate: LB agar, Cm, Kan and Amp
[5] = Test plate: M9 minimal agar, 3.4 μM Tmp, 1 mM IPTG

Row | Molecule | colonies grown on test plates (BL21 GOLD cells) | colonies grown on negative control plates (BL21 GOLD cells; no IPTG) | No. of colonies (CFU) (BL21 GOLD cells; [3]) | No. of colonies (CFU) (BL21 GOLD cells; [4]) | No. of colonies (CFU) (BL21 GOLD cells; [5]) | bacterial colony formation in minimal media [1] | bacterial colony formation in minimal media ([1]; listed as Basic-cJun) | binding result [2]
1 | Aβ1-42: amyloid-β peptide having 42 amino acids (SEQ ID NO: 49), expressed without the basic cJun region [reference compound] | 63 colonies | one | 1 CFU | Covered | 63 CFU | – | – | –
2 | basic-Aβ1-42: fusion protein of the basic cJun region and Aβ1-42 (SEQ ID NO: 51) | 2 colonies | Two | 2 CFU | Covered | 2 CFU | – | – | –
3 | basic-cJun (other, also called AP-1 component; p230d-basic-cJun) MRIKAERKRMRNRIAASKCRKRKLERIARLEEKVKTLKAQNYELASTANMLREQVAQLGAPHHHHHH | – | – | – | – | – | complete loss of bacterial colonies | no colonies grow | binds
